Results reported in patent US9603364B2 (Dow AgroSciences LLC, priority 2013, dated 2017).

What was measured:
Experiment in all cases: General post-emergent herbicidal activity, foliar application
Type in all cases: in vivo
[1] = system: Amaranthus retroflexus L. (pigweed, redroot); settings: for pest or weed control at 70 g/ha: 70 g ai/ha; for pest or weed control at 140 g/ha: 140 g ai/ha; for pest or weed control at 280 g/ha: 280 g ai/ha; for GR80 Value AMARE: calculated by probit analysis, dose for 80% visual injury, may be extrapolated
Experimental: (§1) A weighed amount, determined by the highest rate to be tested, of each test compound was placed in a 25 mL glass vial and was dissolved in 4 mL of a 97:3 v/v (volume/volume) mixture of acetone and dimethyl sulfoxide to obtain concentrated stock solutions which will be referred to as General Purpose Solvent. […] The concentrated stock solutions obtained were diluted with 20 mL of an aqueous mixture containing water, General Purpose Solvent, isopropyl alcohol, Atplus 411F crop oil concentrate, and Triton X-155 surfactant in a 46:42:12:1.0:0.02 v/v ratio to obtain spray solutions containing the highest application rates. Additional application rates were obtained by serial dilution of 12 mL of the high rate solution into a solution containing 2 mL of 97:3 v/v (volume/volume) mixture of acetone and dimethyl sulfoxide and 10 mL of an aqueous mixture containing water, General Purpose Solvent, isopropyl alcohol, Atplus 411F crop oil concentrate, and Triton X-155 surfactant in a 46:42:12:1.0:0.02 v/v ratio to obtain 1/2×, 1/4×, 1/8× and 1/16× rates of the high rate. […] Control plants were sprayed in the same manner with the solvent blank.
(§2) The treated plants and control plants were placed in a greenhouse as described above and watered by sub-irrigation to prevent wash-off of the test compounds. After 14 days, the condition of the test plants as compared with that of the untreated plants was determined visually and scored on a scale of 0 to 100 percent where 0 corresponds to no injury and 100 corresponds to complete kill.
(§3) By applying the well-accepted probit analysis as described by J. Berkson in […], 48, 565 (1953) and by D. Finney in “Probit Analysis” Cambridge University Press (1952), the dose response data gathered as expressed above can be used to calculate GR20, GR50 and GR80 values, which are defined as growth reduction factors that correspond to the effective dose of herbicide required to kill or control 20 percent, 50 percent or 80 percent, respectively, of a target plant. Data not expressed in Table A may have been used to calculate some of the GR80 values in Table B. In some cases, the GR80 values may be extrapolations calculated based on the slope of the dose response curve for individual compounds listed in Table B.

[2] = system: Chenopodium album L. (lambsquarters, common); settings: for pest or weed control at 70 g/ha: 70 g ai/ha; for pest or weed control at 140 g/ha: 140 g ai/ha; for pest or weed control at 280 g/ha: 280 g ai/ha; for GR80 Value CHEAL: calculated by probit analysis, dose for 80% visual injury, may be extrapolated
Experimental: as §1, §2, §3

[3] = system: Echinochloa crus-galli (L.) Beauv. (barnyardgrass); settings: for pest or weed control at 70 g/ha: 70 g ai/ha; for pest or weed control at 140 g/ha: 140 g ai/ha; for pest or weed control at 280 g/ha: 280 g ai/ha; for GR80 Value ECHCG: calculated by probit analysis, dose for 80% visual injury, may be extrapolated
Experimental: as §1, §2, §3

[4] = system: Euphorbia heterophylla L. (poinsettia, wild); settings: for pest or weed control at 70 g/ha: 70 g ai/ha; for pest or weed control at 140 g/ha: 140 g ai/ha; for pest or weed control at 280 g/ha: 280 g ai/ha; for GR80 Value EPHHL: calculated by probit analysis, dose for 80% visual injury, may be extrapolated
Experimental: as §1, §2, §3

[5] = system: Helianthus annuus L. (sunflower, common); settings: for pest or weed control at 70 g/ha: 70 g ai/ha; for pest or weed control at 140 g/ha: 140 g ai/ha; for pest or weed control at 280 g/ha: 280 g ai/ha; for GR80 Value HELAN: calculated by probit analysis, dose for 80% visual injury, may be extrapolated
Experimental: as §1, §2, §3

[6] = system: Viola tricolor L. (pansy); settings: for pest or weed control at 70 g/ha: 70 g ai/ha; for pest or weed control at 140 g/ha: 140 g ai/ha; for pest or weed control at 280 g/ha: 280 g ai/ha; for GR80 Value VIOTR: calculated by probit analysis, dose for 80% visual injury, may be extrapolated
Experimental: as §1, §2, §3

Oryza sativa L. (rice) = settings: Oryza sativa, 336 h, scored after 14 days, read-out: % Visual Growth Reduction ORYSA; for plant injury at 70 g/ha: 70 g ai/ha; for plant injury at 140 g/ha: 140 g ai/ha; for plant injury at 280 g/ha: 280 g ai/ha
Experimental: as §1, §2

Zea mays L. (corn) = settings: 336 h, scored after 14 days, read-out: % Visual Growth Reduction ZEAMX; for plant injury at 70 g/ha: 70 g ai/ha; for plant injury at 140 g/ha: 140 g ai/ha; for plant injury at 280 g/ha: 280 g ai/ha
Experimental: as §1, §2

[7] = Amaranthus retroflexus, 336 h, foliar post-emergent, scored after 14 days, read-out: % Visual Growth Reduction AMARE
[8] = Chenopodium album, 336 h, foliar post-emergent, scored after 14 days, read-out: % Visual Growth Reduction CHEAL
[9] = Echinochloa crus-galli, 336 h, foliar post-emergent, scored after 14 days, read-out: % Visual Growth Reduction ECHCG
[10] = Euphorbia heterophylla, 336 h, foliar post-emergent, scored after 14 days, read-out: % Visual Growth Reduction EPHHL
[11] = Helianthus annuus, 336 h, foliar post-emergent, scored after 14 days, read-out: % Visual Growth Reduction HELAN
[12] = Viola tricolor, 336 h, foliar post-emergent, scored after 14 days, read-out: % Visual Growth Reduction VIOTR

| SMILES | pest or weed control at 70 g/ha [1, 7] | pest or weed control at 140 g/ha [1, 7] | pest or weed control at 280 g/ha [1, 7] | GR80 Value AMARE [1] | pest or weed control at 70 g/ha [2, 8] | pest or weed control at 140 g/ha [2, 8] | pest or weed control at 280 g/ha [2, 8] | GR80 Value CHEAL [2] | pest or weed control at 70 g/ha [3, 9] | pest or weed control at 140 g/ha [3, 9] | pest or weed control at 280 g/ha [3, 9] | GR80 Value ECHCG [3] | pest or weed control at 140 g/ha [4, 10] | GR80 Value EPHHL [4] | pest or weed control at 140 g/ha [5, 11] | GR80 Value HELAN [5] | pest or weed control at 140 g/ha [6, 12] | GR80 Value VIOTR [6] | plant injury at 140 g/ha (Oryza sativa L. (rice)) | plant injury at 140 g/ha (Zea mays L. (corn)) | other results |
| --- | --- | --- | --- | --- | --- | --- | --- | --- | --- | --- | --- | --- | --- | --- | --- | --- | --- | --- | --- | --- | --- |
| COC(=O)c1nc(CF)c(Cl)c(N)c1Cl [Compound F1, Methyl 4-amino-3,5-dichloro-6-(fluoromethyl)picolinate] | 60% | 80% | 90% | 142 g ai/ha | 90% | 90% | 90% | 17.5 g ai/ha | 0% | 0% | 0% | >280 g ai/ha | 100% | 26.2 g ai/ha | 100% | <17.5 g ai/ha | 10% | >280 g ai/ha | 0% | 0% | pest or weed control at 35 g/ha ([1]; Amaranthus retroflexus, 336 h, 35 g ai/ha, foliar post-emergent, scored after 14 days, read-out: % Visual Growth Reduction AMARE): 55%; pest or weed control at 35 g/ha ([2]; Chenopodium album, 336 h, 35 g ai/ha, foliar post-emergent, scored after 14 days, read-out: % Visual Growth Reduction CHEAL): 90%; pest or weed control at 35 g/ha ([3]; Echinochloa crus-galli, 336 h, 35 g ai/ha, foliar post-emergent, scored after 14 days, read-out: % Visual Growth Reduction ECHCG): 0%; pest or weed control at 35 g/ha ([4]; Euphorbia heterophylla, 336 h, 35 g ai/ha, foliar post-emergent, scored after 14 days, read-out: % Visual Growth Reduction EPHHL): 100%; pest or weed control at 70 g/ha [4, 10]: 100%; pest or weed control at 280 g/ha [4, 10]: 100%; pest or weed control at 35 g/ha ([5]; Helianthus annuus, 336 h, 35 g ai/ha, foliar post-emergent, scored after 14 days, read-out: % Visual Growth Reduction HELAN): 100%; pest or weed control at 70 g/ha [5, 11]: 100%; pest or weed control at 280 g/ha [5, 11]: 100%; pest or weed control at 35 g/ha ([6]; Viola tricolor, 336 h, 35 g ai/ha, foliar post-emergent, scored after 14 days, read-out: % Visual Growth Reduction VIOTR): 0%; pest or weed control at 70 g/ha [6, 12]: 0%; pest or weed control at 280 g/ha [6, 12]: 10%; plant injury at 35 g/ha (Oryza sativa L. (rice); 35 g ai/ha): 0%; plant injury at 70 g/ha (Oryza sativa L. (rice)): 0%; plant injury at 280 g/ha (Oryza sativa L. (rice)): 0%; plant injury at 35 g/ha (Zea mays L. (corn); 35 g ai/ha): 0%; plant injury at 70 g/ha (Zea mays L. (corn)): 0%; plant injury at 280 g/ha (Zea mays L. (corn)): 0% |
| COC(=O)c1nc(CC(F)F)c(F)c(N)c1Cl [Compound F2, methyl 4-amino-3-chloro-6-(2,2-difluoroethyl)-5-fluoropicolinate] |  | 100% |  | 103 g ai/ha |  | 90% |  | 103 g ai/ha |  | 0% |  | >140 g ai/ha | 100% | 114 g ai/ha | 80% | 80.8 g ai/ha | 0% | >140 g ai/ha | 0% | 0% |  |
| COC(=O)c1nc(C(F)F)c(F)c(N)c1Cl [Compound F3, methyl 4-amino-3-chloro-6-(difluoromethyl)-5-fluoropicolinate] | 5% | 50% | 90% | 112 g ai/ha | 100% | 100% | 100% | <17.5 g ai/ha | 0% | 0% | 10% | >280 g ai/ha | 75% | 193 g ai/ha | 90% | 32.5 g ai/ha | 5% | >280 g ai/ha | 0% | 0% | pest or weed control at 70 g/ha [4, 10]: 50%; pest or weed control at 280 g/ha [4, 10]: 85%; pest or weed control at 70 g/ha [5, 11]: 90%; pest or weed control at 280 g/ha [5, 11]: 90%; pest or weed control at 70 g/ha [6, 12]: 0%; pest or weed control at 280 g/ha [6, 12]: 10%; plant injury at 70 g/ha (Oryza sativa L. (rice)): 0%; plant injury at 280 g/ha (Oryza sativa L. (rice)): 0%; plant injury at 70 g/ha (Zea mays L. (corn)): 0%; plant injury at 280 g/ha (Zea mays L. (corn)): 10% |
